The values that follow come from patent US20150352094A1, “USE OF FATTY ACID NIACIN CONJUGATES FOR TREATING DISEASES” (CATABASIS PHARMACEUTICALS, INC., priority 2013, published 2015).

The subject of data set [1] is SCD (steroyl CoA desaturase). In words: SREBP-1c target gene expression in HepG2 cells (real time PCR): SCD. The settings on record: HepG2 cells stimulated with oleate, 50 μM, 6 hours. The class given is cell-based. The procedure: (§1) HepG2 cells (ATCC) were seeded at 20,000 cells per well in 96 well plates. After adhering overnight, growth media (10% FBS in DMEM) was removed and cells were serum starved for 24 hours in DMEM containing 1% fatty acid free bovine serum albumin (BSA, Sigma). […] Cells were incubated for 6 hours and then washed with PBS. RNA was reverse-transcribed using the cells to cDNA reagents according to standard protocols (outlined in Applied Biosystem StepOne Real-time PCR protocols). Real time PCR of transcripts was performed with Taqman assays for the three specific genes FASN (fatty acid synthase), SCD (steroyl CoA desaturase) and ApoA1 (apolipoprotein A1). In all three cases, 18S-VIC® was used as a normalization control.
(Real-time PCR tracks product formation cycle by cycle.)

Data set [2] relates to FASN (fatty acid synthase). In words: SREBP-1c target gene expression in HepG2 cells (real time PCR): FASN. The class given is cell-based. The settings on record: HepG2 cells stimulated with oleate, 50 μM, 6 hours. The procedure: as §1
Data set [3] relates to ApoB secretion in HepG2 cells. The settings on record: HepG2 cells, 50, 100 and 200 μM; compared to niacin at 5 mM.
Method: HepG2 cells (ATCC) are seeded at 10,000 cells per well in 96 well plates. After adhering overnight, growth media (10% FBS in DMEM) is removed and cells are serum starved for 24 hours in DMEM containing 0.1% fatty acid free bovine serum albumin (BSA, Sigma). Cells are then treated with a compound. […] All treatments are performed in triplicate. Simultaneous with compound treatment, ApoB secretion is stimulated with addition of 0.1 oleate complexed to fatty acid free BSA in a 5:1 molar ratio. Incubation with a compound and oleate is conducted for 24 hours. Media supernatants are removed and ApoB concentrations are measured using ELISA kits (Mabtech AB). Percent inhibition of ApoB secretion is determined by normalizing data to vehicle treated wells. For a given compound, an IC50 (concentration at which 50% of ApoB secretion is inhibited) can also be determined by using a 4 parameter-fit inhibition curve model (Graph Pad Prism®). In each experiment, cell viability is determined using the ATPlite 1-Step kit (Perkin Elmer), such that compound effects due to cytotoxicity can be monitored.
Data set [4] concerns ApoA1 (apolipoprotein A1). In words: SREBP-1c target gene expression in HepG2 cells (real time PCR): ApoA1. The class given is cell-based. The settings on record: HepG2 cells stimulated with oleate, 50 μM, 6 hours. The procedure:
as §1

Data set [5] relates to ApoB secretion in HepG2 cultures. The settings on record: media supernatants of HepG2 cultures (Jin et al. 1999); cited from earlier work.
Data set [6] deals with ApoA1 secretion in HepG2 cultures. The settings on record: media supernatants of HepG2 cultures (Jin et al. 1997); cited from earlier work.
The test system of data set [7] is Male C57BL/6 mice. In words: Liver weight gain induced by Lomitapide 10 mg/kg in mice on high fat cholesterol diet. The class given is in vivo. From the text: The objective of this example is to determine if 1-8, a representative compound of the present invention, can abrogate the development of hepatic steatosis induced by oral administration of the MTP inhibitor Lomitapide for 7 days in normal mice.
Male C57BL/6 mice were acclimated to the high fat cholesterol diet (D13093001; 1% cholesterol, 15% cacao butter, 40.5% sucrose and 1% corn oil (Research Diets, Inc. New Brunswick, N.J.) upon arrival at CRO facility. The test diet containing the compound (I-8) sufficient for approx. 3 kg of diet (i.e. 25 g of 1-8 from the invention), was prepared by adding the test compound to melted, hand warm cocoa butter and mixed for 5 min. This mix was then added to the master mix (containing the rest of the ingredients) and mixed thoroughly. The diet was frozen to −20° C. On the subsequent day, the diet was broken into small pellets (approx 5 g per piece) and freeze dried, and stored in vacuum sealed bags (approx 500 g) at −20° C. until used. This diet was designated D13093002. The diets were refreshed daily and unused diet is discarded. Lomitapide delivered via oral gavage formulation (10 mg/kg once daily) or vehicle was dosed as described in Table 1. The volume of each gavage dose delivered (mL/kg) was based on each individual animal's most recent recorded body weight. […]

In data set [8] the test system is Healthy human volunteers. In words: Plasma triglycerides in healthy human volunteers after NIH high fat breakfast. The class given is in vivo. The procedure: Healthy human volunteers were divided into 4 treatment groups. The first treatment group was a placebo group (n=6). The other three groups consisted a single oral dose of compound I-8 at either 300 mg (n=6), 1000 mg (n=7) or 2000 mg (n=4). All subjects were given an NIH high fat breakfast in order to induce an elevated level of triglycerides (In a typical NIH high fat breakfast, 450 calories are derived from fat). Compound I-8 was then administered as a single oral dose at the three indicated doses at three different time points: immediately following the high fat meal, 2 hours following the high fat meal and 4 hours following the high fat meal. At each of the time points, plasma triglyceride levels were determined according to standard protocols. […] Based on these dramatic effects on plasma triglycerides levels, compound I-8 and other fatty acid niacin conjugates disclosed in this invention are useful for the treatment of type I hyperlipoproteinemia and type 5 hyperlipoproteinemia.

The subject of data set [9] is mice. In words: Liver weight gain induced by Lomitapide 1 and 3 mg/kg in mice on high fat cholesterol diet (second study). The class given is in vivo. The settings on record: I-8 0.75% in diet from Day -7 with Lomitapide 1 or 3 mg/kg once daily, Days 1-7. The protocol: A second study was conducted with a longer predosing of 1-8 (7 days versus 3 days) and lower doses of Lomitapide (1 and 3 mg/kg once daily) as described in Table 2. Starting on Day −7 the animals in Groups 1, 2, and 4 received a high-fat cholesterol diet (D13093001, Research Diets, Inc. New Brunswick, N.J.). Similarly, starting on Day −7 the animals in Groups 3 and 5 received a high-fat cholesterol diet w/0.75% 1-8 (D13093002, Research Diets, Inc.). On day −1 all mice received an oral gavage dose of vehicle. The baseline blood sample were collected from each mouse 90 minutes after the vehicle dose and stored as plasma. The volume of each gavage dose delivered (mL/kg) was based on each individual animal's most recent recorded body weight.
Observations were recorded at least twice daily and at each sample collection time point. The presence or absence of any clinical abnormalities was recorded. Body weights were recorded on Day −7, and daily on Day −1 through Day 7 (AM). Interim blood samples were collected and a terminal blood sample was collected on Day 7 by intracardiac puncture following anesthetization with CO2. Each whole blood sample was transferred into tubes containing sodium heparin anticoagulant and placed on ice until processing. Each whole blood sample was centrifuged at 2200×g for 10 minutes at 5° C.+3° C. to isolate plasma. […]

Data set [10] concerns female APOE*3Leiden mice. In words: Plasma cholesterol and triglycerides in APOE*3Leiden mice on high cholesterol Western type diet. The class given is in vivo. The settings on record: I-8 0.75% w/w in diet, atorvastatin 0.0015% w/w in diet. The protocol:
The study was conducted using female APOE*3Leiden mice (groups of each n=10) and one untreated reference control group on chow (n=5). To induce dyslipidemia, a high cholesterol Western type diet containing 1% cholesterol, 15% cacao butter, 40.5% sucrose and 1% corn oil (WTD) was fed to the mice for a total experimental period of 20 weeks (of which 4 weeks are a run-in period).
The dyslipidemic mice were grouped on the basis of plasma cholesterol at t=0 assayed in 4 h fasting blood. Mice with low cholesterol after the run-in period were excluded so that homogenous experimental groups were obtained. A group of reference mice (n=5) remained on a chow diet during the complete study period (normolipidemic reference mice).
This mix was then added to the master mix (containing the rest of the ingredients) and mixed thoroughly. The diet was frozen to −20° C. On the subsequent day, the diet was broken into small pellets (approx 5 g per piece) and freeze dried, and stored in vacuum sealed bags (approx 500 g) at −20° C. until use. The diets were refreshed daily and unused diet was discarded.
EDTA plasma was collected in weeks −4, 0, 2 and 4 weeks.

Regarding `CC/C=C\C/C=C\C/C=C\C/C=C\C/C=C\C/C=C\CCC(=O)NCCNC(=O)c1cccnc1` [Compound I-7, N-(2-(4Z,7Z,10Z,13Z,16Z,19Z)-docosa-4,7,10,13,16,19-hexaenamidoethyl)nicotinamide], the SCD gene expression result in data set [1] is recorded as “statistically significant inhibition”. Further, in [2], the FASN gene expression entry is “statistically significant inhibition”. The “inhibition of ApoB secretion” value in data set [3] was “significant inhibition”. Further, in data set [4], the ApoA1 gene expression entry was “increase”.

Consider `O=C(O)c1cccnc1` [niacin], for which, in data set [5], the “secretion of ApoB” value is listed as “inhibiting”. Besides, the “secretion of ApoA1” value in data set [6] is listed as “increase”.

For the compound `O=C(NC1CCN(CCCCC2(C(=O)NCC(F)(F)F)c3ccccc3-c3ccccc32)CC1)c1ccccc1-c1ccc(C(F)(F)F)cc1` [Lomitapide, reference compound], in [7] (Lomitapide alone 10 mg/kg once daily oral gavage, one week, high fat cholesterol diet), the “increase in liver weight” value came to 15%.

Consider `CC/C=C\C/C=C\C/C=C\C/C=C\C/C=C\CCCC(=O)NCCNC(=O)c1cccnc1` [Compound I-8, N-(2-(5Z,8Z,11Z,14Z,17Z)-eicosa-5,8,11,14,17-pentaenamidoethyl)nicotinamide], for which the reduction in triglycerides entry in data set [8] (2 hour time point following the high fat meal) and in data set [8] (4 hour time point following the high fat meal) was “robust signal was still observed” in each case. Moreover, the plasma triglycerides entry is reported as “significant reduction” in data set [8] (single oral dose 1000 mg, after NIH high fat breakfast); “significant reduction” in data set [8] (single oral dose 2000 mg, after NIH high fat breakfast); “significant reduction” in data set [10] (after 4 weeks of treatment). Also, the “effect on plasma triglycerides” value in [8] (single oral dose 300, 1000 or 2000 mg, after NIH high fat breakfast) is recorded as “dose-dependent effect”. In data set [1], the SCD gene expression entry is reported as “statistically significant inhibition”. The “Lomitapide-increased liver weight on cotreatment” value was “reduced” in data set [9] and “completely abrogated” in data set [7] (I-8 0.75% in diet with Lomitapide 10 mg/kg once daily, 7 days). Further, the FASN gene expression result in data set [2] is recorded as “statistically significant inhibition”. For the same compound, the ApoA1 gene expression result in [4] is recorded as “increase”. Moreover, the plasma cholesterol result was “Comparable level of cholesterol reduction” in [10] (after 4 weeks of treatment) and “statistically significant reduction” in [10] (t=2 weeks of treatment).
